Like-named read-outs stand apart in the source and are kept apart here.

The values that follow come from PMC6150336, “Hepatotoxicity Induced by Sophora flavescens and Hepatic Accumulation of Kurarinone, a Major Hepatotoxic Constituent of Sophora flavescens in Rats” (Molecules : A Journal of Synthetic Chemistry and Natural …, 2017).

Data set [1] has as its system HL-7702 cells. Kind of data set: Effect of kurarinone on triglyceride levels in HL-7702 cells. It counts as cell-based, human. To be noted: HL 7702 cells exposed for 24 h. Here is the method: HL-7702 cells were cultured in RPMI-1640 medium (Gibco, Grand Island, NY, USA) containing 10% fetal bovine serum (FBS) (Gibco, USA) in a humidified atmosphere of 5% CO2 at 37 °C. The cells were seeded in 24-well plates, cultured for 24 h, and incubated with kurarinone (1, 8, 16, 24, 32, 44, and 60 μM) dissolved in RPMI-1640 medium without FBS for 24 h. Triglyceride levels were determined using a triglyceride assay kit (Nanjing Jiancheng Bioengineering Institute) according to the manufacturer’s instructions.

Data set [2] in a line: ESF tissue distribution study in rats. It counts as in vivo, rat. To be noted: for AUC(0-t): male, rat. How it is done: Male rats were divided into five groups corresponding to five experimental time points (n = 3 in each group). Rats under urethane anesthesia were sacrificed by bleeding from the abdominal aorta and hepatic portal vein at 15 min, 30 min, 1 h, 2 h, and 4 h time points (3 rats/time point) after a p.o. dose of ESF (2.5 g/kg). The liver, kidneys, heart, skeletal muscles, small intestine, and bile were harvested and homogenized in threefold volume of ice-cold saline. Kurarinone levels in vivo in the plasma and liver were examined at the time points when blood biochemistry parameters were measured. Kurarinone and kurarinone glucuronides levels were detected by LC-MS/MS [24, 25].

The conditions of data set [3]: method and reference not given; cited from earlier work.
[4] abbreviates: AUC0–4h after oral administration of ESF (2.5 g/kg) in rats.

Regarding `C=C(C)[C@H](CC=C(C)C)Cc1c(O)cc(OC)c2c1O[C@H](c1ccc(O)cc1O)CC2=O` [Kurarinone, kurarinone], in data set [1] (1-60 μM), the Triglyceride accumulation result is “accumulated dose-dependently”. Further, in data set [1] (Homo sapiens, L02, read-out: EC50, increase of triglyceride), the EC50 was 31.2 ± 2.47 µM. The “Exposure of liver compared with plasma” value in data set [2] (ESF (2.5 g/kg) orally in rats) is “much higher”. Moreover, in data set [2] (ESF-treated rats), the “Form of kurarinone in visceral organs” value was “predominant”. The AUC(0-t) in data set [2] (bile, AUC0–4h after oral administration of ESF (2.5 g/kg) in rats, read-out: AUC0–t Biliary Secretion) worked out at 0.8 µM·h; in data set [2] (heart, AUC0–4h after oral administration of ESF (2.5 g/kg) in rats, read-out: AUC0–t Heart) it was 4.7 µM·h; in data set [2] (hepatic portal vein plasma, AUC0–4h after oral administration of ESF (2.5 g/kg) in rats, read-out: AUC0–t Protal Plasma), 4.4 µM·h; in data set [2] (kidney, AUC0–4h after oral administration of ESF (2.5 g/kg) in rats, read-out: AUC0–t Kidney) it was 5.4 µM·h; in data set [2] (liver, AUC0–4h after oral administration of ESF (2.5 g/kg) in rats, read-out: AUC0–t Liver), 45.5 µM·h; in data set [2] (skeletal muscle, AUC0–4h after oral administration of ESF (2.5 g/kg) in rats, read-out: AUC0–t Skeletal Muscle) it was 6.9 µM·h. Further, the AUC(0-t) in data set [2] (small intestine, AUC0–4h after oral administration of ESF (2.5 g/kg) in rats, read-out: AUC0–t Intestine) came to 21.4 µM·h; in data set [2] (systemic (body) plasma, AUC0–4h after oral administration of ESF (2.5 g/kg) in rats, read-out: AUC0–t Body Plasma), 2.4 µM·h. Besides, the log p in data set [3] is given as 5.6.
With kurarinone glucuronide, in data set [2] (setting [4]), the “AUC0–t Biliary Secretion” value came out at 93.3 µM·h, the “AUC0–t Body Plasma” value is 15.3 µM·h, the “AUC0–t Heart” value was determined as 0.1 µM·h and the “AUC0–t Intestine” value stood at 2.2 µM·h. Besides, in data set [2] (setting [4]), the “AUC0–t Kidney” value is 0.7 µM·h, the “AUC0–t Liver” value worked out at 1.4 µM·h, the “AUC0–t Protal Plasma” value was found to be 25.0 µM·h and the “AUC0–t Skeletal Muscle” value worked out at 0.4 µM·h. Moreover, in data set [2] (ESF-treated rats), the “Form of kurarinone in plasma and bile” value is given as “dominant form”.

A word on the EC50: it is the concentration giving half of the maximal effect.
